The values below come from ChEMBL document CHEMBL3124770, “Rugulactone derivatives act as inhibitors of NF-κB activation and modulates the transcription of NF-κB dependent genes in MDA-MB-231cells” (Bioorg Med Chem Lett, 2014).

In test [1] the test system is MCF7. Put plainly: Cytotoxicity against estrogen receptor-positive human MCF7 cells assessed as cell viability after 72 hrs by MTT assay. The test is classed as functional, cell-based. Conditions: MCF7, 72 h. (In general: Tetrazolium dyes change colour on reduction, which living cells bring about.)
The subject of test [2] is MCF7. Description: Inhibition of NFkappaB activity in estrogen receptor-positive human MCF7 cells at 2 uM after 24 hrs by SEAP reporter assay. It counts as cell-based. A general note: In a reporter assay the amount or activity of a reporter protein is the signal.
Test [3] relates to MDA-MB-231. Put plainly: Cytotoxicity against estrogen receptor-negative human MDA-MB-231 cells assessed as cell viability after 72 hrs by MTT assay. The test is classed as functional, cell-based. The conditions noted are these: MDA-MB-231, 72 h.
In test [4] the test system is MDA-MB-231. Description: Inhibition of NFkappaB activity in estrogen receptor-negative human MDA-MB-231 cells at 2 uM after 24 hrs by SEAP reporter assay. The test is classed as cell-based.
Test [5] relates to MDA-MB-231. Description: Reduction in HDAC-8 nuclear expression in estrogen receptor-negative human MDA-MB-231 cells at 2 uM after 24 hrs by Western blotting analysis. It counts as functional, cell-based.
Test [6] relates to MDA-MB-231. Put plainly: Cell cycle arrest in estrogen receptor-negative human MDA-MB-231 cells assessed as accumulation at G1 phase at 2 uM after 24 hrs by Propidium iodide staining-based flow cytometric analysis (reference value: 54.66 +/- 2.51%). The test is classed as functional. (In general: Flow cytometry measures light scatter and fluorescence of single cells or particles in a stream.)

Test [7] has as its system MDA-MB-231. Description: Inhibition of NFkappaB activity in estrogen receptor-negative human MDA-MB-231 cells assessed as reduction of Bcl-xL expression at 2 uM after 24 hrs by Western blotting analysis. It counts as cell-based.
In test [8] the test system is MDA-MB-231. Description: Cell cycle arrest in estrogen receptor-negative human MDA-MB-231 cells assessed as accumulation at G2/M phase at 2 uM after 24 hrs by Propidium iodide staining-based flow cytometric analysis (reference value: 26.33 +/- 3.05%). The test is classed as functional.
For test [9], the system named is MDA-MB-231. Put plainly: Effect on p21 gene expression in estrogen receptor-negative human MDA-MB-231 cells at 2 uM after 24 hrs by luciferase reporter gene assay. The test is classed as functional, cell-based.
Test [10] deals with MDA-MB-231. Description: Inhibition of NFkappaB activity in estrogen receptor-negative human MDA-MB-231 cells assessed as reduction of p65 expression at 2 uM after 24 hrs by Western blotting analysis. The test is classed as cell-based.
For test [11], the system named is MDA-MB-231. Put plainly: Reduction in HDAC-3 nuclear expression in estrogen receptor-negative human MDA-MB-231 cells at 2 uM after 24 hrs by Western blotting analysis. The test is classed as functional, cell-based.
Test [12] concerns MDA-MB-231. Description: Inhibition of NFkappaB activity in estrogen receptor-negative human MDA-MB-231 cells assessed as reduction of cyclin D1 expression at 2 uM after 24 hrs by Western blotting analysis. The test is classed as cell-based.
Test [13] deals with MDA-MB-231. Put plainly: Cell cycle arrest in estrogen receptor-negative human MDA-MB-231 cells assessed as accumulation at S phase at 2 uM after 24 hrs by Propidium iodide staining-based flow cytometric analysis (reference value: 19 +/- 1%). It counts as functional.
Test [14] relates to MDA-MB-231. Description: Inhibition of NFkappaB activity in estrogen receptor-negative human MDA-MB-231 cells assessed as retention of NFKappaB/Rel A in cytoplasm at 2 uM after 24 hrs by DAPI/PI staining-based confocal microscopy. The test is classed as cell-based.

SMILES strings stand for the structures. Active and inactive are the calls of the source. The calls are words filed in the database; no cut-off is given here.

As for `CCCCCCCCCCCCCCCCCCCC(=O)/C=C/C[C@@H]1CC=CC(=O)O1`, the IC50 is 5.57 µM with MCF7 [1] and 6.22 µM in the test on MDA-MB-231 [3]. In addition, the inhibition result in the test with MCF7 [2] and in the test with MDA-MB-231 [4] was “Active” throughout.
As to `O=C(/C=C/C[C@@H]1CC=CC(=O)O1)CCc1ccco1`, the IC50 with MCF7 [1] is 4.37 µM; in the test with MDA-MB-231 [3], 3.37 µM. In addition, the inhibition result with MCF7 [2] and in the test with MDA-MB-231 [4] was “Active” throughout.
As to `CCCCCCCCCCCCCCCC(=O)/C=C/C[C@H]1CC=CC(=O)O1`, the results for the 50% inhibitory concentration (IC50) in the test on MCF7 [1] and with MDA-MB-231 [3] were 3.79 µM and 3.98 µM, respectively. In addition, the inhibition result in the test with MCF7 [2] and with MDA-MB-231 [4] was “Active” each time.
As to `O=C(/C=C/C[C@@H]1CC=CC(=O)O1)CCc1cccc(O)c1`, the values for the IC50 with MCF7 [1] and in the test on MDA-MB-231 [3] were 5.12 µM and 6.18 µM, respectively. Also, the inhibition result with MCF7 [2] and with MDA-MB-231 [4] was “Active” each time.
As to `O=C(/C=C/C[C@@H]1CC=CC(=O)O1)CCc1ccc2ccccc2c1`, the results for the IC50 in the test with MCF7 [1] and with MDA-MB-231 [3] were 4.72 µM and 4.74 µM, respectively. Further, the inhibition entry in the test on MCF7 [2] and with MDA-MB-231 [4] was “Active” each time.
As for `O=C(/C=C/C[C@H]1CC=CC(=O)O1)CCc1c[nH]c2ccccc12`, the concentration for half-maximal inhibition (IC50) in the test on MCF7 [1] is 3.91 µM; in the test with MDA-MB-231 [3] it was 3.98 µM. Besides, the inhibition result in the test on MCF7 [2] and in the test with MDA-MB-231 [4] was “Active” throughout.
As to `CCCCCCCCCCCCCCCC(=O)/C=C/C[C@@H]1CC=CC(=O)O1`, the IC50 in the test on MCF7 [1] stood at 3.96 µM; with MDA-MB-231 [3] it was 4.11 µM. Moreover, the inhibition entry in the test with MCF7 [2] and in the test with MDA-MB-231 [4] was “Active” throughout.
Take `O=C(/C=C/C[C@H]1CC=CC(=O)O1)CCc1ccc2ccccc2c1`: the IC50 in the test on MCF7 [1] is 4.48 µM; with MDA-MB-231 [3], 3.64 µM. Further, the inhibition entry with MCF7 [2] and in the test on MDA-MB-231 [4] was “Active” throughout.
Regarding `CCCCCCCC/C=C\CCCCCCCC(=O)/C=C/C[C@H]1CC=CC(=O)O1`, the IC50 in the test with MCF7 [1] amounted to 2.7 µM; in the test on MDA-MB-231 [3], 2.96 µM. For the same compound, the outcome with MDA-MB-231 [5] and in the test on MDA-MB-231 [11] was Active. Moreover, the Activity stood at 70.6% in the test with MDA-MB-231 [6], 21.3% with MDA-MB-231 [8] and 8% in the test with MDA-MB-231 [13]. The inhibition result in the test on MDA-MB-231 [7], in the test with MCF7 [2], with MDA-MB-231 [10], with MDA-MB-231 [12] and in the test on MDA-MB-231 [4] was “Active” throughout. In the test on MDA-MB-231 [9], the result was inactive. In addition, the NF-kappaB activity inhibition entry in the test on MDA-MB-231 [14] is “Active”.
Turning to `O=C(/C=C/C[C@@H]1CC=CC(=O)O1)CCc1ccc2c(c1)OCO2`, the IC50 in the test with MCF7 [1] was 6.56 µM; in the test on MDA-MB-231 [3] it was 7.93 µM. Further, the inhibition result with MCF7 [2] and with MDA-MB-231 [4] was “Active” each time.
For `O=C(/C=C/C[C@H]1CC=CC(=O)O1)CCc1ccc2c(c1)OCO2`, the IC50 with MCF7 [1] worked out at 3.31 µM; in the test with MDA-MB-231 [3] it was 3.09 µM. Besides, the inhibition result with MCF7 [2] and with MDA-MB-231 [4] was “Active” each time.
With `CCCCCCCCCCCCCCCCC/C=C/C(=O)/C=C/C[C@@H]1CC=CC(=O)O1`, the IC50 with MCF7 [1] is 3.76 µM; in the test on MDA-MB-231 [3], 4.49 µM. Also, the inhibition result in the test with MCF7 [2] and in the test on MDA-MB-231 [4] was “Active” throughout.
As to `O=C(/C=C/C[C@@H]1CC=CC(=O)O1)CCc1c[nH]c2ccccc12`, the concentration for half-maximal inhibition (IC50) came to 5.73 µM in the test with MCF7 [1] and 7.08 µM with MDA-MB-231 [3]. The inhibition result in the test on MCF7 [2] and with MDA-MB-231 [4] was “Active” throughout.
For the compound `CCCCCCCCCCCC(=O)/C=C/C[C@@H]1CC=CC(=O)O1`, the IC50 with MCF7 [1] was 4.56 µM; with MDA-MB-231 [3], 5.42 µM. The inhibition entry with MCF7 [2] and in the test on MDA-MB-231 [4] was “Active” throughout.
In the case of `O=C(/C=C/C[C@H]1CC=CC(=O)O1)CCc1cccc(O)c1`, the IC50 in the test on MCF7 [1] was determined as 4.32 µM; in the test on MDA-MB-231 [3] it was 6.68 µM. For the same compound, the inhibition entry in the test with MCF7 [2] and in the test with MDA-MB-231 [4] was “Active” each time.
As to `O=C(/C=C/C[C@H]1CC=CC(=O)O1)CCc1ccco1`, the IC50 with MCF7 [1] is 3.52 µM; in the test on MDA-MB-231 [3] it was 3.34 µM. Besides, the inhibition result in the test with MCF7 [2] and in the test with MDA-MB-231 [4] was “Active” each time.
In the case of `CCCCCCCCCCCCCCCCCCCC(=O)/C=C/C[C@H]1CC=CC(=O)O1`, the IC50 with MCF7 [1] was determined as 3.12 µM; in the test on MDA-MB-231 [3], 3.58 µM. In addition, the inhibition entry in the test with MCF7 [2] and in the test with MDA-MB-231 [4] was “Active” throughout.
As to `O=C(/C=C/C[C@@H]1CC=CC(=O)O1)CCc1cccc(Oc2ccccc2)c1`, the IC50 came to 4.56 µM in the test with MCF7 [1] and 4.91 µM in the test on MDA-MB-231 [3]. Also, the inhibition entry in the test with MCF7 [2] and with MDA-MB-231 [4] was “Active” throughout.
In the case of `CCCCCCCC/C=C\CCCCCCCC(=O)/C=C/C[C@@H]1CC=CC(=O)O1`, the IC50 in the test on MCF7 [1] stood at 5.12 µM; in the test on MDA-MB-231 [3], 5.54 µM. For the same compound, the inhibition entry in the test on MCF7 [2] and in the test with MDA-MB-231 [4] was “Active” each time.
Consider `CCCCCCCCCCCCCCCCCC(=O)/C=C/C[C@H]1CC=CC(=O)O1`, for which the IC50 in the test on MCF7 [1] amounted to 4.32 µM; in the test with MDA-MB-231 [3], 3.93 µM. Moreover, the inhibition result with MCF7 [2] and in the test on MDA-MB-231 [4] was “Active” throughout.
`CCCCCCCCCCCC(=O)/C=C/C[C@H]1CC=CC(=O)O1`: the IC50 with MCF7 [1] worked out at 4 µM; with MDA-MB-231 [3], 3.16 µM. Further, the inhibition result with MCF7 [2] and in the test on MDA-MB-231 [4] was “Active” in each case.
With `O=C(/C=C/C[C@H]1CC=CC(=O)O1)CCc1cccc(Oc2ccccc2)c1`, the half-maximal inhibitory concentration (IC50) with MCF7 [1] amounted to 3.36 µM; with MDA-MB-231 [3], 3.2 µM. Further, the inhibition entry in the test with MCF7 [2] and in the test on MDA-MB-231 [4] was “Active” each time.
Take `CCCCCCCCCCCCCCCCC/C=C/C(=O)/C=C/C[C@H]1CC=CC(=O)O1`: the IC50 is 3.04 µM in the test on MCF7 [1] and 2.87 µM in the test with MDA-MB-231 [3]. In addition, the outcome with MDA-MB-231 [5] and with MDA-MB-231 [11] was Active. The Activity in the test with MDA-MB-231 [6] was determined as 72.6%; with MDA-MB-231 [8], 19.3%; in the test on MDA-MB-231 [13], 8%. The inhibition entry in the test with MDA-MB-231 [7], with MCF7 [2], with MDA-MB-231 [10], in the test with MDA-MB-231 [12] and in the test on MDA-MB-231 [4] was “Active” throughout. The result in the test with MDA-MB-231 [9] was inactive. In addition, the NF-kappaB activity inhibition result in the test with MDA-MB-231 [14] was “Active”.

As a reminder, the IC50 is the concentration that gives 50% inhibition.
